Data from ChEMBL document CHEMBL4043074, “Bortezomib inhibits mammalian carbonic anhydrases” (Bioorg Med Chem, 2017).

Assays:
[1] = target: Carbonic anhydrase 5A, mitochondrial (Homo sapiens, UniProt P35218); assay: Inhibition of human CA5A by stopped-flow CO2 hydrase assay
[2] = target: Carbonic anhydrase 5B, mitochondrial (Homo sapiens, UniProt Q9Y2D0); assay: Inhibition of human CA5B by stopped-flow CO2 hydrase assay
Carbonic anhydrase 9 = Carbonic anhydrase 9 (Homo sapiens, UniProt Q16790)
Description: Inhibition of human CA9 by stopped-flow CO2 hydrase assay

Carbonic anhydrase 13 = Carbonic anhydrase 13 (Homo sapiens, UniProt Q8N1Q1); assay: Inhibition of human CA13 by stopped-flow CO2 hydrase assay
Sequence of Carbonic anhydrase 13 (Q8N1Q1 whole entry): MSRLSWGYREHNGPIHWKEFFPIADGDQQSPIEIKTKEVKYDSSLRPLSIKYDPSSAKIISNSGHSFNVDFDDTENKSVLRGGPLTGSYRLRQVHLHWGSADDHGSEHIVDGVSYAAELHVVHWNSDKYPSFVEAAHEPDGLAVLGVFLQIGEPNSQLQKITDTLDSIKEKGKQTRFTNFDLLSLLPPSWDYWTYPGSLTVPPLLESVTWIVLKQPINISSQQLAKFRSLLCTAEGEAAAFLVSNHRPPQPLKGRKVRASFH

Carbonic anhydrase 14 = Carbonic anhydrase 14 (Homo sapiens, UniProt Q9ULX7); assay: Inhibition of human CA14 by stopped-flow CO2 hydrase assay
Sequence of Carbonic anhydrase 14 (Q9ULX7 whole entry): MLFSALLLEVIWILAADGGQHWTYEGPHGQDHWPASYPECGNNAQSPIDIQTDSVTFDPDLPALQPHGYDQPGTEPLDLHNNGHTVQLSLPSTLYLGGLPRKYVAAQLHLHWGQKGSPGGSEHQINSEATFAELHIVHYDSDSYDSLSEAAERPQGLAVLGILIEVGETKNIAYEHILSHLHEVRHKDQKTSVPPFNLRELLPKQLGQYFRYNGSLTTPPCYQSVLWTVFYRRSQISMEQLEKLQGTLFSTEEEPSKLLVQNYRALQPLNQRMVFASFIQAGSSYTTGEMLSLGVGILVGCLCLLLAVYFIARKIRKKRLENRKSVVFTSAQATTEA

Carbonic anhydrase 1 = Carbonic anhydrase 1 (Homo sapiens, UniProt P00915)
Sequence of Carbonic anhydrase 1 (P00915 whole entry): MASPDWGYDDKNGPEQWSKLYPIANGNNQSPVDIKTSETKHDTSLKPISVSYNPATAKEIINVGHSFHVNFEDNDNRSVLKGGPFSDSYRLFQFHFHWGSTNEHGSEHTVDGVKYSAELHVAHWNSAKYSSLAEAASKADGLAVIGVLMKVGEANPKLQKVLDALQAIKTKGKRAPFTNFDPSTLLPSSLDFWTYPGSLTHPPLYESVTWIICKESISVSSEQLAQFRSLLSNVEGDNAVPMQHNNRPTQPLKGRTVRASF
Description: Inhibition of human CA1 by stopped-flow CO2 hydrase assay

Carbonic anhydrase 2 = Carbonic anhydrase 2 (Homo sapiens, UniProt P00918)
Description: Inhibition of human CA2 by stopped-flow CO2 hydrase assay

Carbonic anhydrase 3 = Carbonic anhydrase 3 (Homo sapiens, UniProt P07451)
Sequence of Carbonic anhydrase 3 (P07451 whole entry): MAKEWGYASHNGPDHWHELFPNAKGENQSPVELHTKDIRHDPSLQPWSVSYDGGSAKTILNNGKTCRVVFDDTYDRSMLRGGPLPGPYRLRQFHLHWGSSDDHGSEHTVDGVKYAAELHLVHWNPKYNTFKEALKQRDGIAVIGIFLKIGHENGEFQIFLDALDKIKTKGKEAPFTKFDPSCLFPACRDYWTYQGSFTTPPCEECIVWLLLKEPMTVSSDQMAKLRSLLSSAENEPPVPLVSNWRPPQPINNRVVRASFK
Description: Inhibition of human CA3 by stopped-flow CO2 hydrase assay

Carbonic anhydrase 6 = Carbonic anhydrase 6 (Homo sapiens, UniProt P23280)
Sequence of Carbonic anhydrase 6 (P23280 whole entry): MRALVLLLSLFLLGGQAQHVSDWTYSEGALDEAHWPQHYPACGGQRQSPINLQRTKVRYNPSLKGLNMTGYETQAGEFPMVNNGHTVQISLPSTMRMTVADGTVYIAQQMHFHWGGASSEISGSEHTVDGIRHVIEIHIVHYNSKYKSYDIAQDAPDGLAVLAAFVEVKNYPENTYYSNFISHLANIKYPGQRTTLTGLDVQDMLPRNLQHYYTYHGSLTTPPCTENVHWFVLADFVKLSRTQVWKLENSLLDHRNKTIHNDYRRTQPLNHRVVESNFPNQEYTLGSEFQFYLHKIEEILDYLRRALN
Description: Inhibition of human CA6 by stopped-flow CO2 hydrase assay

Carbonic anhydrase 12 = Carbonic anhydrase 12 (Homo sapiens, UniProt O43570)
Sequence of Carbonic anhydrase 12 (O43570 whole entry): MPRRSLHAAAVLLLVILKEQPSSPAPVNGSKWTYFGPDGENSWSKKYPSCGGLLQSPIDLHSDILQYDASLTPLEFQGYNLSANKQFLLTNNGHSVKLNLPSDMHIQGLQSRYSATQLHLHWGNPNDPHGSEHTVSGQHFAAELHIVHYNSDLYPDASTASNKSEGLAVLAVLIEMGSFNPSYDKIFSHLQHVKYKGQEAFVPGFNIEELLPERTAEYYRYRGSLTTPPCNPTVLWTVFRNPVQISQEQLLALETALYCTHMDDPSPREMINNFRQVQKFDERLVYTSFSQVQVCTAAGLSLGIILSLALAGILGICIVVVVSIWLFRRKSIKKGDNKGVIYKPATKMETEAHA
Description: Inhibition of human CA12 by stopped-flow CO2 hydrase assay

Carbonic anhydrase 4 = Carbonic anhydrase 4 (Homo sapiens, UniProt P22748); assay: Inhibition of human CA4 by stopped-flow CO2 hydrase assay
Sequence of Carbonic anhydrase 4 (P22748 whole entry): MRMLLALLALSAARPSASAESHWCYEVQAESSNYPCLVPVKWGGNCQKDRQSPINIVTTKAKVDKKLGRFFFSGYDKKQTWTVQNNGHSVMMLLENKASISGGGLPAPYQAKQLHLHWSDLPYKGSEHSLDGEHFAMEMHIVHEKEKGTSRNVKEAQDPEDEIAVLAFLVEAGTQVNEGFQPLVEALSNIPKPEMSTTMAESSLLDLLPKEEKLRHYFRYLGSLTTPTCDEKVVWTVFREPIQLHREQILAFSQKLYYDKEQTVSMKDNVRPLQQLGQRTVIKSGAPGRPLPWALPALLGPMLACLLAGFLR

Carbonic anhydrase 7 = Carbonic anhydrase 7 (Homo sapiens, UniProt P43166)
Sequence of Carbonic anhydrase 7 (P43166 whole entry): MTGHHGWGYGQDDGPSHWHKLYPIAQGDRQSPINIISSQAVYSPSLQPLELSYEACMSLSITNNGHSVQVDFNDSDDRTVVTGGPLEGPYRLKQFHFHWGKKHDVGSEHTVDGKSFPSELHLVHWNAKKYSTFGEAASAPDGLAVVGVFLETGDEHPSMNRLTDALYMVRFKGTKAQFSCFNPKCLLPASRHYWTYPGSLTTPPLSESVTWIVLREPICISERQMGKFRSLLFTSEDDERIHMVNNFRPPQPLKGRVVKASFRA
Description: Inhibition of human CA7 by stopped-flow CO2 hydrase assay

Carbonic anhydrase 15 = target: T1, Carbonic anhydrase 15 (Mus musculus, UniProt Q99N23)
T1 sequence (Q99N23 whole entry): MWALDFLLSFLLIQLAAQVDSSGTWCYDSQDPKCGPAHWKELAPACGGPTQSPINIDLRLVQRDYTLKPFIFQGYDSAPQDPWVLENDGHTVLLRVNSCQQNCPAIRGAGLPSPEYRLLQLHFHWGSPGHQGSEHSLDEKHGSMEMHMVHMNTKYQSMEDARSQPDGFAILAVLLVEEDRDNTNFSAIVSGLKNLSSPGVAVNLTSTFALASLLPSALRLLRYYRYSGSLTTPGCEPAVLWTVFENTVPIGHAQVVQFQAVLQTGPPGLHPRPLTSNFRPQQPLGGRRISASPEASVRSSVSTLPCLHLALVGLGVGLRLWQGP
Description: Inhibition of mouse CA15 by stopped-flow CO2 hydrase assay

Sequence of Carbonic anhydrase 5B, mitochondrial (Q9Y2D0 whole entry): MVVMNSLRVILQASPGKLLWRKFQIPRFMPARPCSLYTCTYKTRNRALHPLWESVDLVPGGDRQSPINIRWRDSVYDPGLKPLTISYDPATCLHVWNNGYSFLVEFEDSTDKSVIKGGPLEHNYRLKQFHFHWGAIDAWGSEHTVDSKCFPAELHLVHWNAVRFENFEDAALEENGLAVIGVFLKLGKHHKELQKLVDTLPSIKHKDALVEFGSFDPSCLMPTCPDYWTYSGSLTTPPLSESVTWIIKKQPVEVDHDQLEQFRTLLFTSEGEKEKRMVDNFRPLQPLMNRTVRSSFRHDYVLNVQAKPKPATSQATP
Sequence of Carbonic anhydrase 5A, mitochondrial (P35218 whole entry): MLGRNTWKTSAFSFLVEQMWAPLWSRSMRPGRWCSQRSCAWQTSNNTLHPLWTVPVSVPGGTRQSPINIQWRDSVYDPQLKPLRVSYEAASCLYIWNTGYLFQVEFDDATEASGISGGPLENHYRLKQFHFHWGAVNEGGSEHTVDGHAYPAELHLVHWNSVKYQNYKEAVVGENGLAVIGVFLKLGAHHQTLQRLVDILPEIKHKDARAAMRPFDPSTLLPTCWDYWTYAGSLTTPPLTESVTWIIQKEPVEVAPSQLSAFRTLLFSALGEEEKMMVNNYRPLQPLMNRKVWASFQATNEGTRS

| Ki [1] | Ki [2] | Ki (Carbonic anhydrase 9) | Ki (Carbonic anhydrase 13) | Ki (Carbonic anhydrase 14) | Ki (Carbonic anhydrase 1) | Ki (Carbonic anhydrase 2) | Ki (Carbonic anhydrase 3) | Ki (Carbonic anhydrase 6) | Ki (Carbonic anhydrase 12) | Ki (Carbonic anhydrase 4) | Ki (Carbonic anhydrase 7) | Ki (Carbonic anhydrase 15) | SMILES |
| --- | --- | --- | --- | --- | --- | --- | --- | --- | --- | --- | --- | --- | --- |
| > 50 µM | > 50 µM | > 50 µM | > 50 µM | > 50 µM | > 50 µM | > 50 µM | > 50 µM | > 50 µM | > 50 µM |  |  |  | OB(O)c1ccccc1 [PHENYLBORONIC ACID] |
|  |  | > 50 µM |  |  | 5.69 µM | 8.18 µM |  |  | > 50 µM |  |  |  | OB1OCc2ccccc21 [BENZOXABOROLE] |
| 6.92 µM | 6.83 µM | 3.38 µM | 8.45 µM | 3.28 µM |  |  | 4.57 µM | 4.38 µM | 5.87 µM | 6.51 µM | 6.94 µM | 2.68 µM | CC(C)C[C@H](NC(=O)[C@H](Cc1ccccc1)NC(=O)c1cnccn1)B(O)O [BORTEZOMIB] |
